# Target: T1, Arabidopsis thaliana housekeeping DHAD (pDHAD) (Arabidopsis thaliana, UniProt Q9LIR4)
# T1 construct: […]; 6xHis (N); made in house; host or cells: E. coli BL21 (DE3)
# T1 sequence (Q9LIR4 35-608): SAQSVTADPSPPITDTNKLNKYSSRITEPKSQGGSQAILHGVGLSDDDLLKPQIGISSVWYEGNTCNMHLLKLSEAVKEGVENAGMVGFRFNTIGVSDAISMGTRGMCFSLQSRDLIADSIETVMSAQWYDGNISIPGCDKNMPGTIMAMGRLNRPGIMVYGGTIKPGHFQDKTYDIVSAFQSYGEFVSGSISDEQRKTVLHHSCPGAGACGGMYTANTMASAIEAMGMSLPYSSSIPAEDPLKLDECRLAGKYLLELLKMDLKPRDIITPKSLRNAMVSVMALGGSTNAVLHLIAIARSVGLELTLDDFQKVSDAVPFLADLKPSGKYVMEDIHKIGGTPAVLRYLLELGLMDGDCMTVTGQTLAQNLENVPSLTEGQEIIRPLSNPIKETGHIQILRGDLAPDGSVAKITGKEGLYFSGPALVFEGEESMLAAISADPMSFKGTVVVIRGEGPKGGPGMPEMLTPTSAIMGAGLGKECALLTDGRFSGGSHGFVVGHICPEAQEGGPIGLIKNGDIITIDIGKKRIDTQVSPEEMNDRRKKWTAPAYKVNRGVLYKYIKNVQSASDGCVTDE
# Assay: DHAD enzymatic inhibition assay (phenylhydrazine derivatization, LC-MS)
# Format: biochemical
# Experimental: Enzymatic activity reactions were carried out in […] volumes containing 50 mM storage buffer, 10 mM (±)-Sodium 2,3-dihydroxyisovalerate hydrate (DHAD substrate) and 1 μM purified DHAD enzyme. After incubation for 30 minutes at 30° C., the reaction was stopped by adding an equal volume of ethanol. 1/10 volumes of 100 mM phenylhydrozine was added at room temperature for 30 minutes to derivatize the DHAD-synthesized molecule (3-methyl-2-oxo-butanoic acid) into a detectable derivatization product (DDP). See FIG. 5A for an overview of reactions.
# Inhibition assays were carried out according to the reactions described above. First, phenylhydrozine was added to 3-methyl-2-oxo-butanoic acid to validate the derivatization reaction. Next, DHAD substrate was incubated with 1 μM purified DHAD enzyme from A. thaliana (with or without DMSO) then derivatized with phenylhydrozine to validate the activity of the purified DHAD enzyme. Finally, DHAD substrate was incubated with 1 μM purified DHAD enzyme from A. thaliana and 1 mM aspterric acid in DMSO then derivatized with phenylhydrozine to determine if DHAD was inhibited by aspterric acid. 20 μL of the reaction mixture was subject to LC-MS analysis, and DDP was detected by UV absorption at 350 nm. The area of the peak that corresponded to DDP was used to quantify the amount of (±)-Sodium 2,3-dihydroxyisovalerate hydrate that was converted into DDP.
# Inhibition assays were carried out according to the reactions described above by incubating purified DHAD enzymes (either the housekeeping DHAD from Aspergillus terreus, the housekeeping DHAD from Arabidopsis thaliana, or AstD from Aspergillus terreus) with aspterric acid at various concentrations. For AstD, up to 8 mM of aspterric acid was tested. […] The half maximal inhibitory concentration (IC50) and the effect of aspterric acid on the enzyme kinetics of each purified DHAD enzyme was calculated based on the initial reaction rates observed in the inhibition assays.
# Biochemical assay of DHADs. […] The area of the HPLC peak with UV absorption at 350 nm was used to quantify the amount of 6. […]
smiles,measurement,setting,value
CC(C)=C1CC[C@]23CO[C@H](C2)[C@@](O)(C(=O)O)CC[C@@H]13 [aspterric acid],pDHAD activity in presence of AA,10 μM AA,abolished pDHAD activity
same,DHAD enzymatic activity in presence of aspterric acid,"1 mM aspterric acid, 1 μM enzyme",completely inhibited
same,mode of inhibition of pDHAD,kinetic analyses,competitive inhibitor
